Assay results: ChEMBL document CHEMBL5661943, “ASAP - In vitro antiviral effect” (2024)

Key:
[1] = test system: Zika virus; test: Functional CPE-based assay to measure dose dependent changes in antiviral-drug inhibitory efficacy against Zika virus MR766 in Vero E6 miRFP670 cells. Cells are treated with antiviral candidates that are serially diluted. EC50 is reported via analysis of MTS assay as a readout of CPE. The assay has been performed by KU Leuven.; format: organism-based, Chlorocebus sabaeus, Vero C1008; settings: Zika virus
[2] = test system: dengue virus type 2; test: Functional assay to measure dose dependent changes in antiviral-drug inhibitory efficacy against Dengue virus type 2 New Guinea C in Vero E6 miRFP670 cells (cotreated with P-gp inhibitor, CP100356). Cells are treated with antiviral candidates that are serially diluted, following infection, cells are fixed. EC50 is reported via analysis of fluorescence intensity using high-content imager. The …; format: organism-based, Chlorocebus sabaeus, Vero C1008; settings: Dengue virus

Row | SMILES | EC50 ([1]; Vero C1008) [µM] | EC50 ([2]; Vero C1008) [µM] | also measured
1 | C=CC[C@H](Nc1ccc(-c2nn[nH]n2)cc1)c1cc(Cl)cc(NC(=O)OCc2ccccc2)c1 | 13.7 | 1.84 | EC90 ([1]; Vero C1008, Baseline response 0 %, EC90 CI (lower) 0 uM, EC90 CI (upper) -3.27181e+18 uM, Hill slope 17.95, Maximum measured 103.91 %, Maximum response 100 %, Minimum measured 1.446 %, R squared 0.986): 15.5 µM; EC90 ([2]; Vero C1008, Baseline response 0 %, EC90 CI (lower) 0.301 uM, EC90 CI (upper) 0.468 uM, Hill slope -1.382, Maximum measured 87.879 %, Maximum response 100 %, Minimum measured 3.84 %, P-gp concentration 500 nM, R squared 0.99, P-gp inhibitor CP100356): 9.02 µM
2 | CCCNC(=O)[C@H](Nc1cccc(-c2nn[nH]n2)c1)c1cc(Cl)cc(NC(=O)OCc2ccccc2)c1 | > 50 | > 50 | EC90 ([1]; Vero C1008, Baseline response 0 %, Hill slope 3.408, Maximum measured 22.38 %, Maximum response 100 %, Minimum measured 1.712 %, R squared 0.919): > 50 µM; EC90 ([2]; Vero C1008, Baseline response 0 %, Hill slope 1.238, Maximum measured 113.655 %, Maximum response 100 %, Minimum measured 85.317 %, P-gp concentration 500 nM, R squared 0.426, P-gp inhibitor CP100356): > 50 µM
3 | O=C(Nc1ccc(C2CNC2)cc1)c1cc(Cl)cc2[nH]ncc12 | > 50 | 8.78 | EC90 ([1]; Vero C1008, Maximum measured 1.247 %, Minimum measured -2.682 %): > 50 µM; EC90 ([2]; Vero C1008, Baseline response 0 %, EC90 CI (lower) 1.814 uM, EC90 CI (upper) 3.53 uM, Hill slope -1.767, Maximum measured 103.682 %, Maximum response 100 %, Minimum measured 12.273 %, P-gp concentration 500 nM, R squared 0.972, P-gp inhibitor CP100356): 30.4 µM
4 | Cn1ncc2c(C(=O)Nc3ccc4c(c3)CNC4)cc(Br)cc21 | > 50 | < 0.391 | EC90 ([1]; Vero C1008, Baseline response 0 %, Hill slope 2.334, Maximum measured 28.881 %, Maximum response 100 %, Minimum measured -5.706 %, R squared 0.821): > 50 µM; EC90 ([2]; Vero C1008, Baseline response 0 %, Hill slope 1.42, Maximum measured 130.593 %, Maximum response 100 %, Minimum measured 71.5 %, P-gp concentration 500 nM, R squared 0.202, P-gp inhibitor CP100356): < 0.391 µM
5 | NCc1cc(/C=C/C(=O)O)cc(NC(=O)c2cc(Cl)cc(NC(=O)OCc3ccccc3)c2)c1 | > 50 | > 50 | EC90 ([1]; Vero C1008, Baseline response 0 %, Hill slope -0.386, Maximum measured 1.272 %, Maximum response 100 %, Minimum measured -0.891 %, R squared 0.02): > 50 µM; EC90 ([2]; Vero C1008, Maximum measured 167.512 %, Minimum measured 81.46 %, P-gp concentration 500 nM, P-gp inhibitor CP100356): > 50 µM
6 | C=CC[C@H](Nc1cc(Cl)cc(NC(=O)OCc2ccccc2)c1)c1ccc(-c2nn[nH]n2)cc1 | 2.26 | < 0.391 | EC90 ([1]; Vero C1008, Baseline response 0 %, EC90 CI (lower) 3.03 uM, EC90 CI (upper) 8.689 uM, Hill slope 2.685, Maximum measured 114.091 %, Maximum response 100 %, Minimum measured 6.468 %, R squared 0.926): 5.13 µM; EC90 ([2]; Vero C1008): 0.683 µM
7 | NCc1cccc(NC(=O)c2cc(Cl)cc3c2cnn3CC2CC2)c1 | > 50 | 12.4 | EC90 ([1]; Vero C1008, Baseline response 0 %, Hill slope 0.179, Maximum measured 64.548 %, Maximum response 100 %, Minimum measured -3.549 %, R squared 0.025): > 50 µM; EC90 ([2]; Vero C1008): > 12.5 µM
8 | CC(C)Oc1ccc(S(=O)(=O)Nc2ccc(Cl)cc2C(=O)O)cc1 | > 50 | 11.1 | EC90 ([1]; Vero C1008, Baseline response 0 %, Hill slope 0.349, Maximum measured 6.596 %, Maximum response 100 %, Minimum measured -0.897 %, R squared 0.277): > 50 µM; EC90 ([2]; Vero C1008, Baseline response 0 %, Hill slope -49.91, Maximum measured 106.831 %, Maximum response 100 %, Minimum measured 0.108 %, P-gp concentration 500 nM, R squared 0.989, P-gp inhibitor CP100356): 11.6 µM
9 | O=C(Nc1cccc(-c2nnn[nH]2)c1)c1cc(Cl)cc2[nH]ncc12 | > 50 | > 50 | EC90 ([1]; Vero C1008, Maximum measured 0.889 %, Minimum measured -1.258 %): > 50 µM; EC90 ([2]; Vero C1008, Maximum measured 107.824 %, Minimum measured 101.456 %, P-gp concentration 500 nM, P-gp inhibitor CP100356): > 50 µM
10 | O=C(Nc1cc(Cl)cc(C(=O)Nc2cccc([C@H]3C[C@H]3C(=O)O)c2)c1)OCc1ccccc1 | > 50 | > 50 | EC90 ([1]; Vero C1008, Baseline response 0 %, Hill slope 7.946, Maximum measured 10.264 %, Maximum response 100 %, Minimum measured -1.789 %, R squared 0.722): > 50 µM; EC90 ([2]; Vero C1008, Maximum measured 111.056 %, Minimum measured 105.114 %, P-gp concentration 500 nM, P-gp inhibitor CP100356): > 50 µM
11 | O=C(Nc1cc(Cl)cc(-c2ccc3[nH]nc(C(=O)O)c3c2)c1)OCc1ccccc1 | > 50 | > 50 | EC90 ([1]; Vero C1008, Baseline response 0 %, Hill slope 0.266, Maximum measured 1.773 %, Maximum response 100 %, Minimum measured -0.573 %, R squared 0.018): > 50 µM; EC90 ([2]; Vero C1008, Maximum measured 168.4 %, Minimum measured 111.066 %, P-gp concentration 500 nM, P-gp inhibitor CP100356): > 50 µM
12 | O=C(NCC1CC1)c1cc(Cl)ccc1NS(=O)(=O)c1ccc(Oc2ccccc2Cl)cc1 | > 50 | 6.05 | EC90 ([1]; Vero C1008, Maximum measured -0.067 %, Minimum measured -1.21 %): > 50 µM; EC90 ([2]; Vero C1008, Baseline response 0 %, Hill slope -26.927, Maximum measured 110.675 %, Maximum response 100 %, Minimum measured 0.394 %, P-gp concentration 500 nM, R squared 0.827, P-gp inhibitor CP100356): 6.57 µM
